Assay results: PubChem BioAssay (NCI)
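Each compound was tested at five concentrations against cells in 96-well plates for 48 hours. GI50 marks 50% less growth. TGI: concentration producing complete growth inhibition.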

Legend:
Test in all cases: NCI anticancer screen, dose series, 48 h
OVCAR-8 ovarian = tested on: OVCAR-8 ovarian
NCI-H226 lung = tested on: NCI-H226 lung
CCRF-CEM leukemia = tested on: CCRF-CEM leukemia
UO-31 renal = tested on: UO-31 renal
DU-145 prostate = tested on: DU-145 prostate
A549 NSCLC = tested on: A549 NSCLC
RPMI-8226 leukemia = tested on: RPMI-8226 leukemia
BT-549 breast = tested on: BT-549 breast
HT29 colon = tested on: HT29 colon
SK-MEL-2 melanoma = tested on: SK-MEL-2 melanoma

Compound	GI50 (OVCAR-8 ovarian) [µM]	TGI (OVCAR-8 ovarian) [µM]	GI50 (NCI-H226 lung) [µM]	TGI (NCI-H226 lung) [µM]	GI50 (CCRF-CEM leukemia) [µM]	TGI (CCRF-CEM leukemia) [µM]	GI50 (UO-31 renal) [µM]	TGI (UO-31 renal) [µM]	GI50 (DU-145 prostate) [µM]	TGI (DU-145 prostate) [µM]	GI50 (A549 NSCLC) [µM]	TGI (A549 NSCLC) [µM]	GI50 (RPMI-8226 leukemia) [µM]	TGI (RPMI-8226 leukemia) [µM]	GI50 (BT-549 breast) [µM]	TGI (BT-549 breast) [µM]	GI50 (HT29 colon) [µM]	TGI (HT29 colon) [µM]	GI50 (SK-MEL-2 melanoma) [µM]	TGI (SK-MEL-2 melanoma) [µM]
CCOC(=O)c1cnc2c(C)cccc2c1Nc1ccc(C(C)=O)cc1	33.8	> 100	7.01	> 100	> 100	> 100	13.5	> 100	33.3	> 100	38.8	> 100	30.9	> 100	16.1	59.3	19.2	> 100	–	–
CCCCCCC[CH2][Sn]1([CH2]CCCCCCC)[O]C(=O)c2cccnc2[O]1	> 100	> 100	> 100	> 100	> 100	> 100	> 100	> 100	–	–	> 100	> 100	> 100	> 100	–	–	> 100	> 100	> 100	> 100
O=C(Nc1nc2c(ncn2C2OC(CO)C(O)C2O)c(=O)[nH]1)c1ccccc1 (stereo not drawn)	–	> 100	–	> 100	–	> 100	–	> 100	–	–	–	> 100	–	> 100	–	–	–	> 100	–	> 100
CCSc1c2ccccc2c(-c2nc(F)nc(F)n2)n1CCc1ccccc1	–	–	–	> 100	–	> 100	–	> 100	–	–	–	> 100	–	> 100	–	–	–	> 100	–	> 100
O=C1c2ccccc2C(=O)c2c(OCCOCCO)cccc21	–	> 100	–	–	–	–	–	> 100	–	> 100	–	> 100	–	–	–	> 100	–	> 100	–	> 100
COc1cc(CCc2ccc(N)cc2)cc(OC)c1OC	–	> 100	–	> 100	–	> 100	–	> 93.1	–	–	–	> 100	–	> 100	–	–	–	> 100	–	82.6
Cn1nc(-c2ccccc2)c2c(/C=C/c3ccccc3)onc2c1=O	–	> 100	–	> 100	–	> 100	–	> 100	–	–	–	> 100	–	> 100	–	–	–	> 100	–	> 100
CC(SC(=O)Nc1ccc(N=Nc2ccccc2)cc1)C(=O)O (stereo not drawn)	–	> 100	–	> 100	–	> 100	–	> 100	–	–	–	> 100	–	> 100	–	–	–	> 100	–	> 100
COC(=O)CSSCc1ccc([N+](=O)[O-])cc1	–	82.1	–	–	–	88	–	27.9	–	50.7	–	88.8	–	54.8	–	41.7	–	60.8	–	42.4
O=S(=O)(c1cnccc1N1CCN(CCO)CC1)N1CCCC1	–	> 100	–	> 100	–	–	–	> 100	–	> 100	–	> 100	–	> 100	–	> 100	–	> 100	–	> 100
O=C(COc1cccc(/C=C2\CSc3ccccc3C2=O)c1)Nc1nccs1	3.08	10.4	13.1	30.6	1.26	4.06	1.29	2.64	1.94	3.99	5.73	18.3	0.653	2.79	–	–	1.85	3.43	1.22	3.1
Brc1ccc2ns[s+]c2c1	–	> 100	–	> 100	–	> 100	–	> 30.7	–	–	–	> 100	–	> 100	–	–	–	> 100	–	> 100
CN(C)CCNC(=O)c1cccc2c1Oc1c(cccc1[N+](=O)[O-])O2	–	16.5	–	0.92	–	16.4	–	–	–	5.37	–	3.42	–	> 100	–	4.66	–	5.78	–	3.06
N#C/C(=C/NC(=S)c1ccncc1)C(N)=O	–	> 100	–	> 100	–	–	–	> 100	–	> 100	–	> 100	–	–	–	> 100	–	> 100	–	> 100
CC(=O)O[C@H]1CC[C@@]2(C)C(=CC[C@@H]3C2CC[C@]2(C)Nc4nc5ccccc5cc4CC32)C1 (stereo partly drawn)	–	10.9	–	8.25	–	14	–	16.9	–	–	–	12.9	–	42.1	–	–	–	3.68	–	31.7
Cc1ccc(S(=O)(=O)NC(CN)C(=O)O)cc1 (stereo not drawn)	–	> 100	–	> 100	–	–	–	> 100	–	> 100	–	> 100	–	> 100	–	> 100	–	> 100	–	> 100
Nc1c(Cl)ncnc1NCCCNc1ncnc(Cl)c1N	–	> 100	–	> 100	–	> 100	–	> 100	–	–	–	> 100	–	> 100	–	–	–	> 100	–	> 100
CC(=O)c1c(C)[nH]c(-c2nc3ccc(N4CCN(C)CC4)cc3[nH]2)c1-c1ccccc1	3.08	> 100	1.93	49.5	4.69	> 100	0.374	11.8	10.2	47	1.45	22.5	–	–	8.81	29.8	0.437	18.5	4.02	22.2
NC(=O)NC1C(C(N)=O)N(Cc2ccccc2)C(=O)N1Cc1ccccc1 (stereo not drawn)	–	> 100	–	–	–	> 100	–	> 100	–	–	–	> 100	–	> 100	–	–	–	> 100	–	> 100
COc1cccc(/C=C2\COc3ccc(-c4ccccc4)cc3C2=O)c1	2.21	6.14	2.57	6.79	2.42	28.1	2.98	9.12	2.05	5.43	3.17	18.7	–	–	2.09	4.94	1.7	4.72	2.38	5.27
C=C1C(=O)OC2/C=C(/C)C(OC(C)=O)C/C=C(\C)C(OC(=O)C3(C)OC3C)C(O)C12 (stereo not drawn)	–	> 100	–	> 100	–	> 100	–	–	–	> 100	–	> 100	–	> 100	–	> 100	–	> 100	–	> 100
